Article PMC8426393, “Interactions of anti-COVID-19 drug candidates with hepatic transporters may cause liver toxicity and affect pharmacokinetics” (Scientific Reports, 2021)
Entries after “also recorded” stand apart in the source; their conditions may differ. Like-named read-outs stand apart in the source and are kept apart here.

Columns and labels:
OATP1B3 = target: T1, OATP1B3 (Homo sapiens, UniProt Q9NPD5); test: OATP1B3-dependent pyranine uptake in overexpressing A431 cells; assay type: cell-based; conditions: for OATP1B3 Type of effect: A431 cells
T1 construct: expressed in transfected cells; host or cells: A431 cells (ATCC)
T1 sequence (Q9NPD5 1-702): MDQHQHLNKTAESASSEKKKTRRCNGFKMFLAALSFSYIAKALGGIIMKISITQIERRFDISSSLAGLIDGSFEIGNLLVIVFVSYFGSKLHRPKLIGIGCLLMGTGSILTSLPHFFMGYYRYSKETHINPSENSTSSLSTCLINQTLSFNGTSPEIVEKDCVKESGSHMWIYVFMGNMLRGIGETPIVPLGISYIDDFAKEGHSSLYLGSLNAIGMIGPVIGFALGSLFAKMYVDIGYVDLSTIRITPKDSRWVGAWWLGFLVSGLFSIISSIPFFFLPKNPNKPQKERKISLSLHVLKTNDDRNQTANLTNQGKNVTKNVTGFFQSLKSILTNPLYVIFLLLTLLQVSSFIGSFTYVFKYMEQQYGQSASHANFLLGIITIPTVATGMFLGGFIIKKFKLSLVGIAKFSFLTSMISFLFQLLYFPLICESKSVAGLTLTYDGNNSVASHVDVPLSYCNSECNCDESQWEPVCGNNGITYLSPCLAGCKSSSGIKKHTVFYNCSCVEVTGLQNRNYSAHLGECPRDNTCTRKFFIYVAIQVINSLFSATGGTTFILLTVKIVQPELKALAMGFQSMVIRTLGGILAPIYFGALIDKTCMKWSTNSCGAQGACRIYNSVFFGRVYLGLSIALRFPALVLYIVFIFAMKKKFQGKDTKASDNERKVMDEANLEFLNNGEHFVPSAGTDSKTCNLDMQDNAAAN

ABCC3/MRP3 = target: T2, ABCC3/MRP3 (Homo sapiens, UniProt O15438); test: MRP3 vesicular transport: ATP- and benzbromarone-sensitive CDCF uptake into inverted HEK-293 membrane vesicles; assay type: biochemical; conditions: for ABCC3/MRP3 Type of effect: HEK-293 vesicles; for concentration at which MRP3 transport is inhibited: CDCF uptake
T2 construct: purchased Solvo Biotechnology (Budapest, Hungary); host or cells: HEK-293 cells

MATE1/SLC47A1 = target: T3, MATE1/SLC47A1 (Homo sapiens, UniProt Q96FL8); test: MATE1-dependent metformin uptake in MATE1-overexpressing MDCKII cells; assay type: cell-based; conditions: for MATE1/SLC47A1 Type of effect: metformin 10 µM, 10 min, 37 °C, MDCKII cells
T3 construct: expressed in transfected cells; host or cells: MDCKII cells, lentiviral transduction
T3 sequence (Q96FL8 1-570): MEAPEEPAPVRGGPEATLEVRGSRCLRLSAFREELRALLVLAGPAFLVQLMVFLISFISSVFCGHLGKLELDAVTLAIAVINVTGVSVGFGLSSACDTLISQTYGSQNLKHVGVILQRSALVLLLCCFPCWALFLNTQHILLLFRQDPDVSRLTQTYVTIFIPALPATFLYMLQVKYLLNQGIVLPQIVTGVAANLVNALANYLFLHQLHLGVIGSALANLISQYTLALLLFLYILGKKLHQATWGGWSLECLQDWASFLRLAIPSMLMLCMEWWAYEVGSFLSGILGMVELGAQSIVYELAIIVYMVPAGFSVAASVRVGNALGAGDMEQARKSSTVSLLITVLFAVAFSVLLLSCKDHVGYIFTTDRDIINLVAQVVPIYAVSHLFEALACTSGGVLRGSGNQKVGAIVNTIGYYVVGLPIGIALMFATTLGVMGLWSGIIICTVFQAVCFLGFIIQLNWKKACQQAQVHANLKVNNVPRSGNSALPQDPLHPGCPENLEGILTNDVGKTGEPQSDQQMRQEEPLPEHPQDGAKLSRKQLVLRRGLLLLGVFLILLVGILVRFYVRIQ

NTCP/SLC10A1 = target: T4, NTCP/SLC10A1 (Homo sapiens, UniProt Q14973); test: NTCP-dependent taurocholate uptake in NTCP-overexpressing HEK-293 cells; assay type: cell-based; conditions: for NTCP/SLC10A1 Type of effect: taurocholate 2 µM, 2 min, 37 °C, HEK-293 cells
T4 construct: expressed in transfected cells; host or cells: HEK-293 cells, lentiviral transduction
T4 sequence (Q14973 1-349): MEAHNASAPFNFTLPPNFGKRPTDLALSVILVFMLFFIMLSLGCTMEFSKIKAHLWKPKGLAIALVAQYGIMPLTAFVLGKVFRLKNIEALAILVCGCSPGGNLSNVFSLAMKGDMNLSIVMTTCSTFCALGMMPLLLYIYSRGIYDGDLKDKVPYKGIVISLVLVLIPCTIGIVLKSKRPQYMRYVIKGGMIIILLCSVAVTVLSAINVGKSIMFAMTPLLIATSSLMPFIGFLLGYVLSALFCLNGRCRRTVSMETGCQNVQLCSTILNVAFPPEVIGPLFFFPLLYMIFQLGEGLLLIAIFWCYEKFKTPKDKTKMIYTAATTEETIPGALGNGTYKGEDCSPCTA

ABCC2/MRP2 = target: T5, ABCC2/MRP2 (Homo sapiens, UniProt Q92887); test: MRP2 vesicular transport: ATP-dependent CDCF uptake into inverted Sf9 membrane vesicles; assay type: biochemical; conditions: CDCF 5 µM, 37 °C, 10 min; for ABCC2/MRP2 Type of effect: Sf9 vesicles
T5 construct: made in house; host or cells: Sf9 insect cells (baculovirus)

OCT1/SLC22A1 = target: T6, OCT1/SLC22A1 (Homo sapiens, UniProt O15245); test: OCT1-dependent metformin uptake in OCT1-overexpressing HEK-293 cells; assay type: cell-based; conditions: for OCT1/SLC22A1 Type of effect: metformin 10 µM, 5 min, 37 °C, HEK-293 cells
T6 construct: expressed in transfected cells; host or cells: HEK-293 cells, lentiviral transduction
T6 sequence (O15245 1-554): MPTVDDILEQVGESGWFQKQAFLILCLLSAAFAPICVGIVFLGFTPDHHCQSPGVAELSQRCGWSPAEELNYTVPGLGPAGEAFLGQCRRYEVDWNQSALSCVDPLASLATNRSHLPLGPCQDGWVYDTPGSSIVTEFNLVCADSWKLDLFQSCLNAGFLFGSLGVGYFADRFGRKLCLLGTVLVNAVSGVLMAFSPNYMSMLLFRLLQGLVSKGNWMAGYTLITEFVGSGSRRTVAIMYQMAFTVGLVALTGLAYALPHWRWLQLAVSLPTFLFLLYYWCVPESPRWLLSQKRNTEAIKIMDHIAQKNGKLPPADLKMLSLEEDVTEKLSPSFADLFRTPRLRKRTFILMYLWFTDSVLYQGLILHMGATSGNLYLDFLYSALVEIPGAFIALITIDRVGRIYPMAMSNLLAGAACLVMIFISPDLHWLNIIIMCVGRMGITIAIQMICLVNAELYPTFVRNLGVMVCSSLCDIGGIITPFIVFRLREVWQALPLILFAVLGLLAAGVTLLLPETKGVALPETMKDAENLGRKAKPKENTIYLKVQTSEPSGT

ABCB1/Pgp = system: ABCB1/Pgp; parameters: method as in Telbisz et al., 2021; conditions: vesicular transporter assay, measured previously; ref Telbisz et al., 2021; cited from earlier work
[1] = cited from earlier work

T5 sequence (Q92887 whole entry): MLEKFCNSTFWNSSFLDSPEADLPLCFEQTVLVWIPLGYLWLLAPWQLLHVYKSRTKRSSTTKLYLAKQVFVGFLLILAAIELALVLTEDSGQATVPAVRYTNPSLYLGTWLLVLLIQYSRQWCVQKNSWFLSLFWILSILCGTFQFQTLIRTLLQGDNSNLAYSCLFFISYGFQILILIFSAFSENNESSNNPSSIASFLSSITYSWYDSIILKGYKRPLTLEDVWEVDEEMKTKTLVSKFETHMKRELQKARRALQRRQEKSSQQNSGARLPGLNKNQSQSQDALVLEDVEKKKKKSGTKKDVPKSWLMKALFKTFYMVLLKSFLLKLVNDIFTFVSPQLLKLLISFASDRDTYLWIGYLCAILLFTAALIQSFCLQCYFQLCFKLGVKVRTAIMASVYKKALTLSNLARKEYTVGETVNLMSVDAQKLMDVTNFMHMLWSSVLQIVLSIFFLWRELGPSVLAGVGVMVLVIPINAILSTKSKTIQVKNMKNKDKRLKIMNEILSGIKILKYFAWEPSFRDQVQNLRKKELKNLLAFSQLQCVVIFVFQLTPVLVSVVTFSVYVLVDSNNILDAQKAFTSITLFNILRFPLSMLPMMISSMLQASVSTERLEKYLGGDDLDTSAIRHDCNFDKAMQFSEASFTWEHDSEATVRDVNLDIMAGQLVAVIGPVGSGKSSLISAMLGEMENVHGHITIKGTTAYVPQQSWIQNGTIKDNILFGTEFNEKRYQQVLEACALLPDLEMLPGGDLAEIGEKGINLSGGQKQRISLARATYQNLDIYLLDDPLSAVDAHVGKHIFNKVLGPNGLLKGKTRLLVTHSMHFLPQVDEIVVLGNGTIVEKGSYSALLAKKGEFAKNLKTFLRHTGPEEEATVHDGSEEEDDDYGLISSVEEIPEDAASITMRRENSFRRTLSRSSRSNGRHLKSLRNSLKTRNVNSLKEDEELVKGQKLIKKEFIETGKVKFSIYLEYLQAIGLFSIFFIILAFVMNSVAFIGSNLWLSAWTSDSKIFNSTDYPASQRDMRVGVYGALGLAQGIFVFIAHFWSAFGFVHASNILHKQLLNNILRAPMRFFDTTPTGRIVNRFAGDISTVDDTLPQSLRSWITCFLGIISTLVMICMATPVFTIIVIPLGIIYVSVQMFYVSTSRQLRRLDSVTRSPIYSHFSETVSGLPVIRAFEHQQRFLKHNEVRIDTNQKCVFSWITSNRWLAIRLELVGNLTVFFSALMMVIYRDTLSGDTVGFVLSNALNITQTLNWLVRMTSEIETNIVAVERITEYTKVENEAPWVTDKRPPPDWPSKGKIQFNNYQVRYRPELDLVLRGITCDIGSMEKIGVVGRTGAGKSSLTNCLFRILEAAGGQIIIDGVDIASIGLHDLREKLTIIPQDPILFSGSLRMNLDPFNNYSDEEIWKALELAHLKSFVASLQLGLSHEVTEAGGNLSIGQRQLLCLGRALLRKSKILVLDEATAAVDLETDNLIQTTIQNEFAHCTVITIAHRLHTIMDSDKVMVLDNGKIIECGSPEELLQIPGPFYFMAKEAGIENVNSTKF
T2 sequence (O15438 whole entry): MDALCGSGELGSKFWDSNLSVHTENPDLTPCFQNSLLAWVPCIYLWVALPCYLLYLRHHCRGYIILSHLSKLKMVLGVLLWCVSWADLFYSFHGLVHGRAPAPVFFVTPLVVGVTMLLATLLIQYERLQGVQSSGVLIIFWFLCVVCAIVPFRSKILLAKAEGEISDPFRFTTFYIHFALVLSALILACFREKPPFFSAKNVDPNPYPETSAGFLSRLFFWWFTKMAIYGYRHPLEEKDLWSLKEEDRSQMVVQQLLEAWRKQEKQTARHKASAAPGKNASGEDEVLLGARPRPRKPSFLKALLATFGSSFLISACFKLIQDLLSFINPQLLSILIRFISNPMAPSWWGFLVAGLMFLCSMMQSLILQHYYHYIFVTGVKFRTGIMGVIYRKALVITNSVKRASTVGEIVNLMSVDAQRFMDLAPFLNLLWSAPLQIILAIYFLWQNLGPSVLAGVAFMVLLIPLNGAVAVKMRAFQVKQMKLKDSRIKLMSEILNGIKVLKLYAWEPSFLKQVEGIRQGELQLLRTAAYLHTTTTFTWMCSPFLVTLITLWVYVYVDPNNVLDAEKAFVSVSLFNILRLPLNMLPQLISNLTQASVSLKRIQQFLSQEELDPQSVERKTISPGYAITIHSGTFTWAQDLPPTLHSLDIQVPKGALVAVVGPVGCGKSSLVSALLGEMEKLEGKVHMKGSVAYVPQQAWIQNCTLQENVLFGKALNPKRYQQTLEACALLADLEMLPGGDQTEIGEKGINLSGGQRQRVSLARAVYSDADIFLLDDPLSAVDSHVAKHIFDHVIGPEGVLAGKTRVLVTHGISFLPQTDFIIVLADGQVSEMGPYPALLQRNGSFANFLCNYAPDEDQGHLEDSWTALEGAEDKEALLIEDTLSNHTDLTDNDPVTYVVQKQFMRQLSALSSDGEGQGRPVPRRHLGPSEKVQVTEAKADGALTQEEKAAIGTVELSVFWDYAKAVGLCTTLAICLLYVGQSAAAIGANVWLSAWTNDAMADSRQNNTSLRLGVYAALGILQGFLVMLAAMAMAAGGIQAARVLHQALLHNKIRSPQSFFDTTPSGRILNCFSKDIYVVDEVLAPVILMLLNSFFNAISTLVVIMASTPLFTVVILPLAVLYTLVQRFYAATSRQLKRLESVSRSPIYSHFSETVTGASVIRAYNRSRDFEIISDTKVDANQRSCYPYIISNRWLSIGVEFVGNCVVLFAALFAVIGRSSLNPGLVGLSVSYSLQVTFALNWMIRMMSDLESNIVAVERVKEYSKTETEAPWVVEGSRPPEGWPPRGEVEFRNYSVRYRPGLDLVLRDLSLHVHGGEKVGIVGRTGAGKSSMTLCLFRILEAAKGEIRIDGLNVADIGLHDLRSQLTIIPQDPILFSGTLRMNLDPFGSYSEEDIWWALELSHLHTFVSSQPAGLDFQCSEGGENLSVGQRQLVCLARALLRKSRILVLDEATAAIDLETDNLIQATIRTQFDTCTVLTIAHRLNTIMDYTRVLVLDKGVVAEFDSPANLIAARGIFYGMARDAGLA

SMILES	OATP1B3 Type of effect (OATP1B3; pyranine 20 µM, 30 min, 37 °C)	ABCC3/MRP3 Type of effect (ABCC3/MRP3; CDCF 5 µM, 37 °C, 10 min)	MATE1/SLC47A1 Type of effect (MATE1/SLC47A1)	NTCP/SLC10A1 Type of effect (NTCP/SLC10A1)	ABCC2/MRP2 Type of effect (ABCC2/MRP2)	OCT1/SLC22A1 Type of effect (OCT1/SLC22A1)	concentration at which MRP3 transport is inhibited (ABCC3/MRP3)	ABCB1/Pgp Type of effect (ABCB1/Pgp)	IC50 (ABCB1/Pgp)	IC50 (OATP1B3)	IC50 (MATE1/SLC47A1)	IC50 (NTCP/SLC10A1)	IC50 (OCT1/SLC22A1)	further results
NC(=O)c1nc(F)c[nH]c1=O [FAV, favipiravir]	did not modify OATP functionality	did not influence MRP3 transport at all	practically no inhibition	only minor inhibition	no such effect	no significant inhibitory action	–	–	–	–	–	–	–	–
CCC(C)C1OC2(CCC1C)CC1CC(CC=C(C)C(OC3CC(OC)C(OC4CC(OC)C(O)C(C)O4)C(C)O3)C(C)C=CC=C3COC4C(O)C(C)=CC(C(=O)O1)C34O)O2 (centres unmarked) [IVE, ivermectin]	inh	inh	practically no inhibition; also recorded: No effect	only minor inhibition	strongly decreased the accumulation of the probe substrate and inh	no significant inhibitory action; also recorded: no effect	> 20 µM	inh	0.3 µM	–	–	–	–	OATP1B3 R value (OATP1B3; DDI estimate, cut off 1.1, 165 µg/kg IVE dose, peak plasma 46 ng/ml): 1.07; IC50 (OATP1B3; approximate IC50, pyranine 20 µM, 30 min, 37 °C): 1.4 µM; IC50 (ABCC3/MRP3; approximate IC50, CDCF 5 µM, 37 °C, 10 min): > 50 µM; IC50 (ABCC2/MRP2; approximate IC50): ≥ 20 µM; peak plasma concentration ([1]; 165 µg/kg IVE dose, ref FDA guideline for stromectol): 46 ng/mL
CCC(CC)COC(=O)[C@H](C)N[P@](=O)(OC[C@H]1O[C@@](C#N)(c2ccc3c(N)ncnn23)[C@H](O)[C@@H]1O)Oc1ccccc1 [REM, remdesivir]	inh	did not influence MRP3 transport at all; also recorded: did not inhibit; also recorded: No effect	strong inhibitory action and inh	inh	did not inhibit but rather increased the probe substrate transport at high concentrations; also recorded: Increase	strong inhibitory effect and inh	–	inh	> 20 µM	4.3 µM	2.3 µM	≥ 50 µM	6.1 µM	inhibition at 50 µM (NTCP/SLC10A1; HEK293, read-out: NTCP inhibition): 40 to 50%; T1/2 ([1]; clearance from the human body): 1.15 h; Cmax ([1]; intravenous 100 mg, healthy adults, ref FDA label 214787Orig1s000): 3.7 µM; concentration of strong inhibitory effect on OCT1 (OCT1/SLC22A1; metformin uptake): below 10 µM
Cc1cccc(C)c1OCC(=O)N[C@@H](Cc1ccccc1)[C@@H](O)C[C@H](Cc1ccccc1)NC(=O)[C@H](C(C)C)N1CCCNC1=O [LOP, lopinavir]	–	inh	strong inhibitory action and inh	inh	no such effect	less inhibitory and inh	> 20 µM	inh	0.6 µM	2.6 µM	7.7 µM	≥ 50 µM	> 50 µM	IC50 (ABCC3/MRP3): > 40 µM; peak plasma concentrations in vivo ([1]; Kaletra 400 mg lopinavir and 100 mg ritonavir in combination): 11 to 20 µM
